Experimental data: ChEMBL document CHEMBL4840377, “Colletofragarone A2 and Colletoins A-C from a Fungus Colletotrichum sp. Decrease Mutant p53 Levels in Cells” (J Nat Prod, 2021)

Legend:
[1] = test system: SAOS-2; assay: Cytotoxicity against human SAOS-2 cells harbouring p53 R175H mutant incubated for 3 days by MTT assay; type: functional, cell-based; conditions: SAOS-2, 72 h
[2] = Reduction in p53 R175H mutant protein level in human SAOS-2 cells assessed as ratio of test compound fluorescence to control fluorescence at 2 uM measured after 2 hrs by Hoechst 33342 staining based immunofluorescence assay; type: functional

| Compound | IC50 [1] [µM] | Ratio [2] |
| --- | --- | --- |
| C/C=C/C=C/C=C/C1=C2C(=O)O[C@@H](C)C[C@@H](O)C[C@@H](O)[C@@H]3C(=O)C=C[C@H](O1)[C@H]23 | 0.35 | 0.4 |
| C/C=C/C=C/C=C/C1=C2C(=O)O[C@@H](C)C[C@@H](O)C[C@@H](O)[C@H]3C(=O)C[C@@H](O)[C@H](O1)[C@H]23 | 12 | – |
| C/C=C/C=C/C=C/C1=C2C(=O)O[C@@H](C)C[C@@H](O)C[C@@H](O)[C@@H]3C(=O)C[C@@H](O)[C@H](O1)[C@H]23 | 21 | – |
| C/C=C/C=C\C=C\C1=C2C(=O)O[C@@H](C)CCCC[C@@H]3C(=O)C=C[C@H](O1)[C@H]23 | 0.36 | 0.57 |
